Data as given in ChEMBL document CHEMBL1201862, “PubChem BioAssay data set” (2004).
Several values for one entry are separate records, joined by “and”; a condition that tells them apart may be missing. Equal entries are not always repeated.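 Cells were grown in 96-well plates and exposed to each compound for 48 hours at five concentrations; endpoints were interpolated linearly between bracketing concentrations, or set to the highest concentration if not reached. Here, GI50 denotes the concentration required for 50% inhibition of growth.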 Activity calls are given as the source filed them. Rule as the data show it: active = GI50 up to about 1.1 µM and inactive = higher.

What was measured:
Experiment in all cases: NCI-60 cell line screen, 48 h
A498 = test system: A498
A549 = test system: A549
ACHN = test system: ACHN
CCRF-CEM = test system: CCRF-CEM
DLD-1 = test system: DLD-1
EKVX = test system: EKVX
HCC 2998 = test system: HCC 2998
HCT-116 = test system: HCT-116
HCT-15 = test system: HCT-15
HOP-92 = test system: HOP-92
HT-29 = test system: HT-29
IGROV-1 = test system: IGROV-1
KM-20L2 = test system: KM-20L2
KM12 = test system: KM12
LOX IMVI = test system: LOX IMVI
LXFL 529 = test system: LXFL 529
M14 = test system: M14
M19-MEL = test system: M19-MEL
Malme-3M = test system: Malme-3M
NCI-H226 = test system: NCI-H226
NCI-H23 = test system: NCI-H23
NCI-H460 = test system: NCI-H460
NCI-H522 = test system: NCI-H522
OVCAR-4 = test system: OVCAR-4
OVCAR-5 = test system: OVCAR-5
RPMI-8226 = test system: RPMI-8226
RXF 393 = test system: RXF 393
SF-539 = test system: SF-539
SK-MEL-28 = test system: SK-MEL-28
SK-MEL-2 = test system: SK-MEL-2
SK-MEL-5 = test system: SK-MEL-5
SNB-19 = test system: SNB-19
SNB-78 = test system: SNB-78
SR = test system: SR
SW-620 = test system: SW-620
TK-10 = test system: TK-10
U-251 = test system: U-251
UACC-257 = test system: UACC-257
UO-31 = test system: UO-31
XF498 = test system: XF498
786-0 = test system: 786-0
COLO 205 = test system: COLO 205
DMS-114 = test system: DMS-114
DMS-273 = test system: DMS-273
HL-60 = test system: HL-60
HOP-62 = test system: HOP-62
K562 = test system: K562
MOLT-4 = test system: MOLT-4
OVCAR-3 = test system: OVCAR-3
OVCAR-8 = test system: OVCAR-8
SK-OV-3 = test system: SK-OV-3
SNB-75 = test system: SNB-75
UACC-62 = test system: UACC-62
CAKI-1 = test system: CAKI-1
SF-268 = test system: SF-268
SF-295 = test system: SF-295
SN12C = test system: SN12C
HOP-18 = test system: HOP-18

Measured: GI50

Cc1ccc(SSCC(O)C(O)CSSc2ccc(C)cc2)cc1 (stereo not given)
14.1 µM and 13.1 µM: HCT-15
inactive: A498 4.51 µM | A549 10.6 µM and 10.9 µM | ACHN 11.2 µM and 15.7 µM | CCRF-CEM 1.14 µM | DLD-1 15 µM and 14.1 µM | EKVX 14.1 µM and 18.1 µM | HCC 2998 15 µM and 14.2 µM | HCT-116 12.1 µM and 7.28 µM | HOP-92 17 µM and 11.9 µM | HT-29 13.3 µM and 18.5 µM | IGROV-1 2.99 µM and 2.14 µM | KM-20L2 13.1 µM and 11.1 µM | KM12 9.48 µM and 11.1 µM | LOX IMVI 1.3 µM and 1.89 µM | LXFL 529 10.6 µM and 6.01 µM | M14 7.29 µM and 5.58 µM | M19-MEL 16.5 µM and 11.6 µM | Malme-3M 19 µM and 15.3 µM | NCI-H226 15.2 µM and 15.1 µM | NCI-H23 5.94 µM and 11.3 µM | NCI-H460 17.5 µM and 18.1 µM | NCI-H522 1.82 µM and 1.76 µM | OVCAR-4 13.4 µM and 14.3 µM | OVCAR-5 16.6 µM and 22.8 µM | RPMI-8226 3.66 µM and 3.26 µM | RXF 393 3.92 µM and 4.15 µM | SF-539 3.42 µM and 3.02 µM | SK-MEL-28 13.9 µM and 14.9 µM | SK-MEL-2 8.18 µM | SK-MEL-5 7.31 µM and 12.6 µM | SNB-19 15.1 µM and 14.6 µM | SNB-78 13.7 µM | SR 3.55 µM and 3.29 µM | SW-620 7.55 µM and 14.2 µM | TK-10 15.6 µM and 13.2 µM | U-251 2.03 µM and 2.23 µM | UACC-257 15.6 µM and 14.4 µM | UO-31 4.08 µM and 4.26 µM | XF498 17.2 µM and 13.7 µM

O=C(NC12CC3CC(CC(F)(C3)C1)C2)c1ccccc1
inactive: 786-0 > 100 µM | A498 > 100 µM | A549 > 100 µM | ACHN > 100 µM | CCRF-CEM > 100 µM | COLO 205 > 100 µM | DLD-1 > 100 µM | DMS-114 > 100 µM | DMS-273 > 100 µM | EKVX > 100 µM | HCC 2998 > 100 µM | HCT-116 > 100 µM | HL-60 > 100 µM | HOP-62 > 100 µM | HOP-92 > 100 µM | HT-29 > 100 µM | IGROV-1 > 100 µM | K562 > 100 µM | KM-20L2 > 100 µM | KM12 > 100 µM | LOX IMVI > 100 µM | LXFL 529 > 100 µM | M14 > 100 µM | M19-MEL > 100 µM | MOLT-4 > 100 µM | Malme-3M > 100 µM | NCI-H23 > 100 µM | NCI-H460 > 100 µM | NCI-H522 > 100 µM | OVCAR-3 > 100 µM | OVCAR-5 > 100 µM | OVCAR-8 > 100 µM | RPMI-8226 > 100 µM | RXF 393 > 100 µM | SF-539 > 100 µM | SK-MEL-28 > 100 µM | SK-MEL-2 > 100 µM | SK-OV-3 > 100 µM | SNB-19 > 100 µM | SNB-75 43.9 µM | SNB-78 > 100 µM | SW-620 > 100 µM | TK-10 > 100 µM | U-251 > 100 µM | UACC-257 > 100 µM | UACC-62 > 100 µM | UO-31 59.2 µM | XF498 > 100 µM

COC1=CC(C2c3cc4c(cc3[C@@H](Nc3ccc(F)cc3)C3COC(=O)[C@H]23)OCO4)=CC(=O)C1=O (stereo not given in full)
inactive: 786-0 3.29 µM | A498 2.43 µM | A549 1.36 µM | ACHN 3.1 µM | CAKI-1 4.48 µM | CCRF-CEM 2.49 µM | COLO 205 15.7 µM | DLD-1 26.2 µM | DMS-273 2.93 µM | EKVX 20.5 µM | HCC 2998 16.1 µM | HCT-116 9.89 µM | HL-60 2.11 µM | HOP-62 1.61 µM | HOP-92 6.92 µM | HT-29 20.2 µM | IGROV-1 14.4 µM | K562 10.4 µM | KM-20L2 25.7 µM | KM12 13.3 µM | LOX IMVI 7.78 µM | LXFL 529 11.6 µM | M14 7.82 µM | M19-MEL 15.4 µM | Malme-3M 13.7 µM | NCI-H226 11.1 µM | NCI-H23 2.88 µM | NCI-H522 4.33 µM | OVCAR-3 27.7 µM | OVCAR-4 39.8 µM | OVCAR-5 19.9 µM | OVCAR-8 10.1 µM | RPMI-8226 10.5 µM | RXF 393 50.2 µM | SF-268 8.05 µM | SF-295 3.21 µM | SF-539 4.37 µM | SK-MEL-28 19.2 µM | SK-MEL-5 9.35 µM | SK-OV-3 4.46 µM | SN12C 4.32 µM | SNB-19 5.57 µM | SNB-75 6.81 µM | SNB-78 > 51.9 µM | SW-620 12.7 µM | TK-10 19.2 µM | U-251 2.78 µM | UACC-257 37.6 µM | UACC-62 5.68 µM | UO-31 7.66 µM | XF498 5.98 µM
11.1 µM: HCT-15
active: MOLT-4 0.524 µM | NCI-H460 0.608 µM | SR 0.506 µM

COc1ccc(-c2nc3c(nc2-c2ccc(OC)cc2)N(C)S(=O)(=O)N=C3N)cc1
32.4 µM: HCT-15
inactive: 786-0 16.9 µM | A498 22.5 µM | A549 27 µM | ACHN 19.1 µM | CAKI-1 23.2 µM | CCRF-CEM 23.1 µM | COLO 205 14.7 µM | DLD-1 33.3 µM | DMS-114 17.3 µM | DMS-273 41.6 µM | HCC 2998 35.6 µM | HCT-116 15 µM | HL-60 15.9 µM | HOP-18 47.2 µM | HOP-62 33.6 µM | HOP-92 13.6 µM | HT-29 25.4 µM | IGROV-1 28.1 µM | K562 24.4 µM | KM-20L2 40.6 µM | KM12 22.8 µM | LOX IMVI 15.5 µM | LXFL 529 27.3 µM | M14 34.4 µM | M19-MEL 31.5 µM | MOLT-4 11.9 µM | Malme-3M 22.7 µM | NCI-H23 28.7 µM | NCI-H460 22.8 µM | NCI-H522 9.59 µM | OVCAR-3 14 µM | OVCAR-4 14.1 µM | OVCAR-5 25.2 µM | OVCAR-8 34.2 µM | RPMI-8226 10.6 µM | RXF 393 10.9 µM | SF-268 24.3 µM | SF-295 22.3 µM | SF-539 18.3 µM | SK-MEL-28 32.1 µM | SK-MEL-2 20.5 µM | SK-MEL-5 11.6 µM | SK-OV-3 24.6 µM | SN12C 41 µM | SNB-19 28.1 µM | SNB-75 24 µM | SR 9.89 µM | SW-620 28.8 µM | TK-10 28.1 µM | U-251 26.1 µM | UACC-62 22.8 µM | UO-31 13.6 µM

COc1c(O)c(C=O)c2c(O)c(-c3c(C)cc4c(C(C)C)c(OC)c(O)c(C=O)c4c3O)c(C)cc2c1C(C)C [6,6'-METHOXYGOSSYPOL]
inactive: A498 11.4 µM | A549 3.52 µM | ACHN 2.43 µM | CAKI-1 6.08 µM | CCRF-CEM 5.16 µM | COLO 205 1.89 µM | DLD-1 4.38 µM | DMS-114 3.08 µM | DMS-273 5.11 µM | EKVX 4.86 µM | HCC 2998 2.65 µM | HCT-116 2.61 µM | HL-60 4.46 µM | HOP-62 2.98 µM | HOP-92 2.2 µM | HT-29 4.13 µM | IGROV-1 5.47 µM | K562 11.8 µM | KM-20L2 6.01 µM | KM12 5.05 µM | LXFL 529 3.96 µM | M14 9.86 µM | M19-MEL 3.65 µM | MOLT-4 7.53 µM | Malme-3M 5.75 µM | NCI-H226 2.43 µM | NCI-H23 3.61 µM | NCI-H460 4.72 µM | NCI-H522 2.62 µM | OVCAR-3 3.37 µM | OVCAR-4 3.86 µM | OVCAR-5 7.08 µM | OVCAR-8 3.74 µM | RPMI-8226 4.32 µM | RXF 393 2.52 µM | SF-268 5.71 µM | SF-295 4.19 µM | SF-539 4.36 µM | SK-MEL-28 6.61 µM | SK-MEL-2 4.45 µM | SK-MEL-5 9.23 µM | SK-OV-3 4.19 µM | SN12C 2.74 µM | SNB-19 3.88 µM | SNB-75 2.4 µM | SNB-78 25.3 µM | SR 4.4 µM | SW-620 5.33 µM | TK-10 6.71 µM | U-251 3.2 µM | UACC-257 10.9 µM | UACC-62 11.9 µM | UO-31 3.3 µM
3.74 µM: HCT-15
